From US12485118B2, “Combinations of GLP-1R and THRβ agonists and methods of use thereof” (Terns Pharmaceuticals, Inc., priority 2023, dated 2025)
Entries after “also recorded” stand apart in the source; their conditions may differ. Read-outs that look alike come from different tables or passages of the source.

Columns and labels:
male DIO mice [1] = assay: Glycemic control: oral glucose tolerance test and plasma insulin in male DIO mice at thermoneutrality; assay type: in vivo, mouse; details: week 6
Protocol: On the day of the OGTT, random blood glucose and body weight of the mice are measured, mice are dosed with corresponding compounds or vehicle in the morning before fasting, then the mice are fasted for 6 hours, basal fasting glucose is measured by tail vein nick thereafter. Glucose is orally gavaged with 2 g/kg at a dose volume of 5 mL/kg. Blood glucose levels are measured at 0 (pre-dose), 15-, 30-, 60-, and 120-min post glucose dosing. The second dose is administrated after OGTT treatment.
Male C57BL/6JRj mice (5 weeks of age, n=70) were fed a high fat diet (n=60, 60% HFD, D12492, Ssniff) for 24 weeks, or a lean-chow diet (n=10, Altromin 1324) before treatment start. HFD animals were randomized during week -1 based on body weight, glucose levels and fat tissue mass into 5 treatments groups. […] Body weight, food and water intake were measured daily from day -3, body composition (EchoMRI) was measured during week -1 and week 6; energy expenditure was assessed at study day 5-7 and at study day 34-36. Fasting blood glucose and insulin levels were measured at baseline and termination, while an oral glucose tolerance test was performed at week 4. […]

[2] = Plasma pharmacokinetics of Compound 9 and orforglipron in DIO hGLP-1R mice; details: for AUC(0-t) / Cmax: hGLP-1R transgenic (expressing human GLP-1R)
Protocol: Test compounds were formulated in vehicle (10% [v/v]Solutol HS15+90% [v/v]saline) and mice were treated QD PO for 21 days with vehicle, Compound 9 (3 mg/kg), orforglipron (0.2 and 2 mg/kg), and Compound 9 (3 mg/kg) in combination with orforglipron (0.2 mg/kg). Body weight and food intake were measured daily, and mice were maintained on HFD throughout the study period. On Day 20 of the study, plasma samples were collected at predose (O), 2-, 4-, 8-, and 24-hours postdose for pharmacokinetic analyses of Compound 9, orforglipron, and combination treatment groups. Body mass composition was assessed on Day 19. Liver was collected and weighed at study termination and portions were preserved for steatosis assessment by histology. Subcutaneous fat was collected and weighed at study termination. A sample of subcutaneous fat tissue was assessed for UCP-1 expression by qPCR and Western blot analyses.

[3] = system: uncoupling protein 1 (UCP-1) expression in subcutaneous adipose tissue; assay: UCP-1 expression in subcutaneous adipose tissue of DIO mice; assay type: in vivo, mouse
Protocol: Body weight, food and water intake are measured daily. Body composition is measured using EchoMRI. Subcutaneous fat is collected and weighed at study termination.
Male C57BL/6JRj mice (5 weeks of age, n=70) were fed a high fat diet (n=60, 60% HFD, D12492, Ssniff) for 24 weeks, or a lean-chow diet (n=10, Altromin 1324) before treatment start. HFD animals were randomized during week -1 based on body weight, glucose levels and fat tissue mass into 5 treatments groups. Lean mice (group 1) were treated with vehicle (QD+QD, PO+SC) and DIO mice were treated (QD+QD, PO+SC) as follow: group 2 received vehicle (PO+SC), group 3 received Compound 9 6 mg/kg, PO+vehicle (SC), group 4 received Semaglutide (30 nmol/kg, SC)+vehicle (PO), group 5 received Compound 9 (6 mg/kg, PO)+Semaglutide (30 nmol/kg, SC) and group 6 received Tirzepatide (30 nmol/kg, SC)+vehicle (PO). Body weight, food and water intake were measured daily from day -3, body composition (EchoMRI) was measured during week -1 and week 6; energy expenditure was assessed at study day 5-7 and at study day 34-36. Fasting blood glucose and insulin levels were measured at baseline and termination, while an oral glucose tolerance test was performed at week 4. […]

DIO hGLP-1R mice = assay: Compound 9 in combination with orforglipron in DIO hGLP-1R mice: body weight, food intake, body mass composition, subcutaneous fat, liver weight; assay type: in vivo, mouse; details: Compound 9 3 mg/kg, orforglipron 0.2 and 2 mg/kg, combination 3 + 0.2 mg/kg; for body weight changes from baseline over time: PO QD 21 days; for terminal subcutaneous fat: study termination
Protocol: DIO hGLP-1R mice were housed at room temperature (21-25° C.) with a relative humidity of 40-70%. Temperature and relative humidity were monitored and recorded twice daily. An electronic time-controlled lighting system was used to provide a 12 h light/12 h dark cycle, 19:00 pm-7:00 am, lights out and enrichment toys were provided. The mice were fed high fat diet (HFD, Research Diets 12492, 60% kca, 1% fat) for >50 weeks to induce obesity. Mice were acclimated to once-daily (QD) oral dosing (per os, PO) for 1 week with body weight and food intake measured on consecutive 4 days prior to dosing start (Day 1). Body mass composition was measured by EchoMRI (Bruker Minispec LF90II) on Day 0 and mice were randomized to treatment groups (Table 5-1) based on baseline body weight, food intake, and body composition.
Body mass composition was assessed on Day 19. […] Subcutaneous fat was collected and weighed at study termination.

male DIO mice [4] = assay: Energy expenditure (heat production, RER, oxygen consumption) in male DIO mice at thermoneutrality; assay type: in vivo, mouse
Protocol: (§1) Male C57BL/6JRj mice (5 weeks of age, n=70) were fed a high fat diet (n=60, 60% HFD, D12492, Ssniff) for 24 weeks, or a lean-chow diet (n=10, Altromin 1324) before treatment start. HFD animals were randomized during week -1 based on body weight, glucose levels and fat tissue mass into 5 treatments groups. Lean mice (group 1) were treated with vehicle (QD+QD, PO+SC) and DIO mice were treated (QD+QD, PO+SC) as follow: group 2 received vehicle (PO+SC), group 3 received Compound 9 6 mg/kg, PO+vehicle (SC), group 4 received Semaglutide (30 nmol/kg, SC)+vehicle (PO), group 5 received Compound 9 (6 mg/kg, PO)+Semaglutide (30 nmol/kg, SC) and group 6 received Tirzepatide (30 nmol/kg, SC)+vehicle (PO). Body weight, food and water intake were measured daily from day -3, body composition (EchoMRI) was measured during week -1 and week 6; energy expenditure was assessed at study day 5-7 and at study day 34-36. Fasting blood glucose and insulin levels were measured at baseline and termination, while an oral glucose tolerance test was performed at week 4. At termination, the M gastrocnemius muscle was weighted and collected for RNAseq analysis, while plasma, brain, liver, BAT, epidydimal and subcutaneous WAT depots were collected for sponsor.

male DIO mice [5] = assay: 6 weeks of Compound 9 alone and in combination with semaglutide: body weight, food intake, body composition (EchoMRI) in male DIO mice at thermoneutrality; assay type: in vivo, mouse; details: Compound 9 6 mg/kg PO combined with Semaglutide 30 nmol/kg SC
Protocol: as §1

rodent GLP-1R = molecular target: T1, rodent GLP-1R (Mus musculus, UniProt O35659); details: cited from earlier work
T1 sequence (O35659 22-463): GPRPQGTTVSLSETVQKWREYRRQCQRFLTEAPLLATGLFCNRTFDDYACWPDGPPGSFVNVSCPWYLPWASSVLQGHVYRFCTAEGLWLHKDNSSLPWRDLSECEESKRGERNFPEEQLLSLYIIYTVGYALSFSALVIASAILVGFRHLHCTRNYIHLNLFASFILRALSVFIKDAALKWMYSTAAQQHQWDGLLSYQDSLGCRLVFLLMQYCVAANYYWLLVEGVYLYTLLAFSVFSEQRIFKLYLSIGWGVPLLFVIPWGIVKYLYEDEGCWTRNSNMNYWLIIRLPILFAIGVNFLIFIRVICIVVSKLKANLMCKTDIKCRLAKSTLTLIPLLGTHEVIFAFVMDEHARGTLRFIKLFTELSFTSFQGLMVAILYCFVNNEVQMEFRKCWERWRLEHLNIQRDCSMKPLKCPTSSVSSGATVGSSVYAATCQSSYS

humans = details: cited from earlier work

In the case of `N#Cc1nn(-c2cc(Cl)c(Oc3n[nH]c(=O)c4ccccc34)c(Cl)c2)c(=O)[nH]c1=O` [Compound 9, 2-(3,5-dichloro-4-((4-oxo-3,4-dihydrophthalazin−1-yl)oxy)phenyl)-3,5-dioxo-2,3,4,5-tetrahydro-1,2,4-triazine-6-carbonitrile], the plasma insulin level (male DIO mice [1]) is reported as “increased”, the AUC(0-t) ([2]; mouse, in vivo, po, 3 mg/kg) is reported as 19000 ng·h/mL and the Cmax ([2]; mouse, in vivo, po, 3 mg/kg) is reported as 2480 ng/mL. For the same molecule, the “exposure (dose proportionality, effect of combination)” value ([2]; mouse, in vivo, po) was “unaffected when dosed in combination with orforglipron”, the “uncoupling protein 1 (UCP-1) expression” value [3] was “partially restored the obesity induced lowering of UCP-1” and the “fat mass change from baseline” value (DIO hGLP-1R mice; Day 19, PO QD) was “remained relatively unchanged”. The “lean mass change from baseline” value (DIO hGLP-1R mice; Day 19, PO QD) was “negligible”, the “body weight changes from baseline over time” value (DIO hGLP-1R mice) was “remained relatively unchanged; also recorded: comparable to a 10-fold higher dose of orforglipron as monotherapy” and the terminal subcutaneous fat (DIO hGLP-1R mice; PO QD) was “not significantly different from mice treated with vehicle”. The heat production (male DIO mice [4]; after 5 weeks of treatment) was “increased both dark and light-phase heat production”, the “energy expenditure (EE)” value (male DIO mice [4]; assessed after week 4) was “restored energy expenditure to normal (DIO Veh) levels when combined with semaglutide” and the average food intake (male DIO mice [5]) was “normalized semaglutide-induced reduction in food intake”.

For `Cc1cc(-n2nc3c(c2-n2ccn(-c4ccc5c(cnn5C)c4F)c2=O)[C@H](C)N(C(=O)c2cc4cc([C@H]5CCOC(C)(C)C5)ccc4n2[C@@]2(c4noc(=O)[nH]4)C[C@@H]2C)CC3)cc(C)c1F` [orforglipron], the “activity on rodent GLP-1R” value (rodent GLP-1R) is listed as “inactive”, the “occurrence of total adverse events compared to placebo, OR” value (“occurrence … compared to placebo, OR” for short) (humans; 12 mg daily dose) is listed as 2.49 (95% CI: 1.25, 4.98) and the “occurrence … compared to placebo, OR” value (humans; 24 mg daily dose) is listed as 2.23 (95% CI: 1.13, 4.43). The “occurrence … compared to placebo, OR” value (humans; 36 mg daily dose) was 2.04 (95% CI: 1,08,3.84), the “change in body weight at week 26” value (humans; 45 mg daily compared to 12, 24 or 36 mg/day) was “highest change in body weight” and the “occurrence … compared to placebo, OR” value (humans; 45 mg daily dose) was 2.96 (95% CI: 1.41, 6.21). The “total adverse events compared to placebo” value (humans; all doses (12, 24, 36, 45 mg daily)) was “significantly higher”, the “unbound exposure AUC24h,u” value ([2]; 0.2 mg/kg daily in mice, equivalent to 6 mg/day in humans) was ~0.300 ng·h/mL and the “unbound exposure AUC24h,u” value ([2]; 2 mg/kg daily in mice, equivalent to 45 mg/day in humans) was ~1.60 ng·h/mL. The AUC(0-t) ([2]; mouse, in vivo, po, 0.2 mg/kg) was 543 ng·h/mL, the Cmax ([2]; mouse, in vivo, po, 0.2 mg/kg) was 47.4 ng/mL and the AUC(0-t) ([2]; mouse, in vivo, po, 2 mg/kg) was 2670 ng·h/mL. The Cmax ([2]; mouse, in vivo, po, 2 mg/kg) was 251 ng/mL, the “exposure (dose proportionality, effect of combination)” value ([2]; mouse, in vivo, po) was “increased in a less than dose-proportional manner” and the “exposure (dose proportionality, effect of combination)” value ([2]; plasma, Day 20, PO QD) was “largely unaffected when dosed in combination with Compound 9”. For the same molecule, the “fat mass change from baseline” value (DIO hGLP-1R mice; Day 19, PO QD) was “dose-dependent decrease in fat mass”, the “body weight changes from baseline over time” value (DIO hGLP-1R mice) was “dose-dependent body weight decreases over time” and the daily food intake (DIO hGLP-1R mice; PO QD) was “profoundly reduced in a dose-dependent manner during the first few days”. For the same molecule, the terminal subcutaneous fat (DIO hGLP-1R mice; PO QD) was “dose-dependent decrease in subcutaneous fat, although only the high dose was significantly different from vehicle treatment”.
